Measured values as given in patent US20250115597A1, “TYK2 INHIBITORS AND COMPOSITIONS AND METHODS THEREOF” (LYNK PHARMACEUTICALS CO. LTD., priority 2021, published 2025).

Molecular target: T1, Ba/F3-FL-TYK2-P760L cells (Homo sapiens, UniProt P29597, P760L, cells depend on it)
T1 construct: BaF3-FL-T2P760L (nM)
Assay: Anti-proliferative assay, Ba/F3-FL-TYK2-P760L cells (Cell-Titer Glo)
Format: cell-based
Conditions: 72 h, read-out: BaF3-FL-T2P760L IC50
Description: Anti-Proliferative Assay Dimerization domain of Tel protein fused with JAK kinase domain was permanently transduced into Ba/F3 cells, whose proliferation is dependent on JAK activity in the absence of IL-3 induction. These engineered Ba/F3 cells (Ba/F3-FL-TYK2-[…], Ba/F3-TEL-TYK2 and Ba/F3-TEL-JAK2) were used to monitor JAK inhibitory activities of the compounds in the cellular. […] Cells were seeded at 2000/well of white flat bottom 96-well plates. The well containing medium only was used as background control. After 24 h growth, cells were treated with compounds. The test compounds were dissolved in DMSO to a stock concentration of 20 mM. 3-fold serially diluted compounds for 9 concentrations with top concentration of 20 μM was added into the each well. […] The cells continued to grow at 37° C. in 5% CO2 for 72 h after compound treatment. The viability was measured by cellular ATP determination using the Cell-Titer Glo luciferase reagent (Promega). The Luminescence value was recorded by a multi-label reader Envision (PerkinElmer).

T1 sequence (P29597 whole entry P760L): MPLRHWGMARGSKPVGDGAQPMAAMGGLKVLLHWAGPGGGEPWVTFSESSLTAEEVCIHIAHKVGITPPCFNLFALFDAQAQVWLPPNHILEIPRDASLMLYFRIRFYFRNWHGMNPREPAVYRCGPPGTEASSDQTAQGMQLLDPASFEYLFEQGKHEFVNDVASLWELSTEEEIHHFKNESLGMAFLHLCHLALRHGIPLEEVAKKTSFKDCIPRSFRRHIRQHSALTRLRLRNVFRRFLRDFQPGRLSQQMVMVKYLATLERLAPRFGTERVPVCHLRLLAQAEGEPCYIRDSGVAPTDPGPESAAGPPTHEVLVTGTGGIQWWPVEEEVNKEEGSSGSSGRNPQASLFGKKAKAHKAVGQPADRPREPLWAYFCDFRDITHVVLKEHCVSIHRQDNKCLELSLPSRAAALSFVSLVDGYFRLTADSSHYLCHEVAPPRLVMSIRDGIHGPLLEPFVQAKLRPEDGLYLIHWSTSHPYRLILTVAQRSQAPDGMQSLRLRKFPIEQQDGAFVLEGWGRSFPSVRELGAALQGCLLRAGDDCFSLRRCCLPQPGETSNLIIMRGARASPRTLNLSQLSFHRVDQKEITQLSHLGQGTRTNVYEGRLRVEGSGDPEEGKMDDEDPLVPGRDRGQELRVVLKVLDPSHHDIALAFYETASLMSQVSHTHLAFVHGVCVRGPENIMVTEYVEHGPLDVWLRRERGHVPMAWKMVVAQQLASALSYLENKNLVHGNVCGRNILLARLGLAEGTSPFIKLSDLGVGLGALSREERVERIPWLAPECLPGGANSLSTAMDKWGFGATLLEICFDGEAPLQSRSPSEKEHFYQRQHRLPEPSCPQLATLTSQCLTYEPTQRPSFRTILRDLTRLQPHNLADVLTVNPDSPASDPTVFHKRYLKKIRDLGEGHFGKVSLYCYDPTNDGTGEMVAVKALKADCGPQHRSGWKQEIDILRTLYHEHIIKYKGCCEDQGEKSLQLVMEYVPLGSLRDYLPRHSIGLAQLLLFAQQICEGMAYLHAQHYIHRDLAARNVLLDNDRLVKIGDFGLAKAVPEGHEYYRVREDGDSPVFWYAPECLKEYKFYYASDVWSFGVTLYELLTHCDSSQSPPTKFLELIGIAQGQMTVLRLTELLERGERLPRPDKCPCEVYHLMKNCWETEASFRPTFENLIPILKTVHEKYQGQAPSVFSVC

Row | SMILES | GI50
1 | [2H]C([2H])([2H])NC(=O)c1cnc(NC(=O)[C@@H]2C[C@@H]2F)cc1Nc1cn(C)c2ccn(CC)c(=O)c12 [Example 102, 4-[(5-Ethyl-1-methyl-4-oxo-pyrrolo[3,2-c]pyridin-3-yl)amino]-6-[[(1S,2S)-2-fluorocyclopropanecarbonyl]amino]-N-(methyl-d3)pyridine-3-carboxamide] | 807 nM
2 | [2H]C([2H])([2H])NC(=O)c1cnc(NC(=O)[C@@H]2C[C@H]2F)cc1Nc1cn(C)c2ccn(CC)c(=O)c12 [Example 103, 4-[(5-Ethyl-1-methyl-4-oxo-pyrrolo[3,2-c]pyridin-3-yl)amino]-6-[[(1S,2R)-2-fluorocyclopropanecarbonyl]amino]-N-(methyl-d3)pyridine-3-carboxamide] | 761 nM
3 | [2H]C([2H])([2H])NC(=O)c1cnc(NC(=O)C2CC2)cc1Nc1cn(C)c2ccn(CC3CC3)c(=O)c12 [Example 106, 6-(Cyclopropanecarboxamido)-4-((5-(cyclopropylmethyl)-1-methyl-4-oxo-4,5-dihydro-1H-pyrrolo[3,2-c]pyridin-3-yl)amino)-N-(methyl-d3)nicotinamide] | 206 nM
4 | [2H]C([2H])([2H])NC(=O)c1cnc(NC(=O)C2CC2)cc1Nc1cn(C)c2ccn(CC=C)c(=O)c12 [Example 109, 4-((5-Allyl-1-methyl-4-oxo-4,5-dihydro-1H-pyrrolo[3,2-c]pyridin-3-yl)amino)-6-(cyclopropanecarboxamido)-N-(methyl-d3)nicotinamide] | 147 nM
5 | [2H]C([2H])([2H])NC(=O)c1cnc(NC(=O)C2CC2)cc1Nc1cn(C)c2ccn(CCOC)c(=O)c12 [Example 112, 6-(Cyclopropanecarboxamido)-4-((5-(2-methoxyethyl)-1-methyl-4-oxo-4,5-dihydro-1H-pyrrolo[3,2-c]pyridin-3-yl)amino)-N-(methyl-d3)nicotinamide] | 477 nM
6 | [2H]C([2H])([2H])NC(=O)c1cnc(NC(=O)C2CC2)cc1Nc1cn(C)c2ccn(CC(=O)OCC)c(=O)c12 [Example 117, Ethyl 2-(3-((2-(cyclopropanecarboxamido)-5-((methyl-d3)carbamoyl)pyridin-4-yl)amino)-1-methyl-4-oxo-1,4-dihydro-5H-pyrrolo[3,2-c]pyridin-5-yl)acetate] | 249 nM
7 | [2H]C([2H])([2H])NC(=O)c1cnc(NC(=O)C2CC2)cc1Nc1cn(C)c2ccn(-c3cnn(C)c3)c(=O)c12 [Example 120, 6-(Cyclopropanecarboxamido)-N-(methyl-d3)-4-((1-methyl-5-(1-methyl-1H-pyrazol-4-yl)-4-oxo-4,5-dihydro-1H-pyrrolo[3,2-c]pyridin-3-yl)amino)nicotinamide] | 1120 nM
8 | [2H]C([2H])([2H])NC(=O)c1cnc(Nc2ccc(F)cn2)cc1Nc1cn(C)c2c(F)cn(C)c(=O)c12 [Example 122, 4-((7-Fluoro-1,5-dimethyl-4-oxo-4,5-dihydro-1H-pyrrolo[3,2-c]pyridin-3-yl)amino)-6-((5-fluoropyridin-2-yl)amino)-N-(methyl-d3)nicotinamide] | 34.7 nM
9 | [2H]C([2H])([2H])NC(=O)c1cnc(Nc2ccc(F)cn2)cc1Nc1cn(C)c2c(F)cn(CC(F)(F)F)c(=O)c12 [Example 124, 4-((7-Fluoro-1-methyl-4-oxo-5-(2,2,2-trifluoroethyl)-4,5-dihydro-1H-pyrrolo[3,2-c]pyridin-3-yl)amino)-6-((5-fluoropyridin-2-yl)amino)-N-(methyl-d3)nicotinamide] | 34.8 nM

More lines, in order of falling GI50, values ahead:

Row | GI50 | SMILES
10 | 2420 nM | [2H]C([2H])([2H])NC(=O)c1cnc(NC(=O)C2(C(F)(F)F)CC2)cc1Nc1cn(C)c2ccn(CC)c(=O)c12 [Example 104, 4-[(5-Ethyl-1-methyl-4-oxo-pyrrolo[3,2-c]pyridin-3-yl)amino]-N-(methyl-d3)-6-[[1-(trifluoromethyl)cyclopropanecarbonyl]amino]pyridine-3-carboxamide]
11 | 2100 nM | [2H]C([2H])([2H])NC(=O)c1cnc(NC(=O)C2CC2)cc1Nc1nn(C)c2ccn(CC3CC3(F)F)c(=O)c12 (stereo not shown) [Example 107, 6-(Cyclopropanecarboxamido)-4-((5-((2,2-difluorocyclopropyl)methyl)-1-methyl-4-oxo-4,5-dihydro-1H-pyrazolo[4,3-c]pyridin-3-yl)amino)-N-(methyl-d3)nicotinamide]
12 | 1510 nM | [2H]C([2H])([2H])NC(=O)c1cnc(NC(=O)C2CC2)cc1Nc1cn(C)c2ccn(-c3cc(C)n(C)n3)c(=O)c12 [Example 119, 6-(Cyclopropanecarbonylamino)-4-[[5-(1,5-dimethylpyrazol-3-yl)-1-methyl-4-oxo-pyrrolo[3,2-c]pyridin-3-yl]amino]-N-(methyl-d3)pyridine-3-carboxamide]
13 | 1100 nM | [2H]C([2H])([2H])NC(=O)c1cnc(NC(=O)C2CC2)cc1Nc1cn(C)c2ccn([C@@H]3CCOC3)c(=O)c12 [Example 114, (R)-6-(cyclopropanecarboxamido)-N-(methyl-d3)-4-((1-methyl-4-oxo-5-(tetrahydrofuran-3-yl)-4,5-dihydro-1H-pyrrolo[3,2-c]pyridin-3-yl)amino)nicotinamide]
14 | 1100 nM | [2H]C([2H])([2H])NC(=O)c1cnc(NC(=O)C2CC2)cc1Nc1cn(C)c2ccn([C@H]3CCOC3)c(=O)c12 [Example 115, 6-(Cyclopropanecarbonylamino)-4-[[1-methyl-4-oxo-5-[(3S)-tetrahydrofuran-3-yl]pyrrolo[3,2-c]pyridin-3-yl]amino]-N-(methyl-d3)pyridine-3-carboxamide]
15 | 1060 nM | [2H]C([2H])([2H])NC(=O)c1cnc(NC(=O)C2CC2)cc1Nc1cn(C)c2ccn(-c3ccn(C)n3)c(=O)c12 [Example 118, 6-(Cyclopropanecarbonylamino)-4-[[1-methyl-5-(1-methylpyrazol-3-yl)-4-oxo-pyrrolo[3,2-c]pyridin-3-yl]amino]-N-(methyl-d3)pyridine-3-carboxamide]
16 | 523 nM | [2H]C([2H])([2H])NC(=O)c1cnc(NC(=O)C2CC2)cc1Nc1cn(C)c2ccn(C3CC3)c(=O)c12 [Example 108, 6-(Cyclopropanecarboxamido)-4-((5-cyclopropyl-1-methyl-4-oxo-4,5-dihydro-1H-pyrrolo[3,2-c]pyridin-3-yl)amino)-N-(methyl-d3)nicotinamide]
17 | 522 nM | [2H]C([2H])([2H])NC(=O)c1cnc(NC(=O)C2CC2)cc1Nc1ccc2cnn(C(C)C)c2c1OC [Example 126, 6-(Cyclopropanecarboxamido)-4-((1-isopropyl-7-methoxy-1H-indazol-6-yl)amino)-N-(methyl-d3)nicotinamide]
18 | 378 nM | [2H]C([2H])([2H])NC(=O)c1cnc(NC(=O)C2CC2)cc1Nc1ccc2cnn(C3CCOCC3)c2c1OC [Example 127, 6-(Cyclopropanecarboxamido)-4-((7-methoxy-1-(tetrahydro-2H-pyran-4-yl)-1H-indazol-6-yl)amino)-N-(methyl-d3)nicotinamide]
19 | 154 nM | [2H]C([2H])([2H])NC(=O)c1cnc(NC(=O)C2CC2)cc1Nc1cn(C)c2ccn(C3CCC3)c(=O)c12 [Example 111, 4-((5-Cyclobutyl-1-methyl-4-oxo-4,5-dihydro-1H-pyrrolo[3,2-c]pyridin-3-yl)amino)-6-(cyclopropanecarboxamido)-N-(methyl-d3)nicotinamide]
